Data from the supplement of paper PMC13380429.

Columns and labels:
Conditions in all cases: 72 h
Calu-3 [1] = assay: cell viability relative to DMSO; higher = less toxic
HepG2 [2] = assay: as above
U2OS [3] = assay: as above
Vero E6 [4] = assay: as above
Calu-3 [5] = assay: relative viability EC50 (midpoint between 100% and the lowest measured viability); higher = less toxic
HepG2 [6] = assay: as above
U2OS [7] = assay: as above
Vero E6 [8] = assay: as above
Calu-3 [9] = assay: drug sensitivity score (DSS) for viability; higher = more toxic; extreme values may be limits of the assay
HepG2 [10] = assay: as above
U2OS [11] = assay: as above
Vero E6 [12] = assay: as above
Caco-2 [13] = assay: cell viability relative to DMSO; higher = less toxic
Caco-2 [14] = assay: relative viability EC50 (midpoint between 100% and the lowest measured viability); higher = less toxic
Caco-2 [15] = assay: drug sensitivity score (DSS) for viability; higher = more toxic; extreme values may be limits of the assay

SMILES | cell viability (Calu-3 [1]; 1 nM) [%] | cell viability (Calu-3 [1]; 10 nM) [%] | cell viability (Calu-3 [1]; 100 nM) [%] | cell viability (Calu-3 [1]; 1000 nM) [%] | cell viability (Calu-3 [1]; 10000 nM) [%] | cell viability (HepG2 [2]; 1 nM) [%] | cell viability (HepG2 [2]; 10 nM) [%] | cell viability (HepG2 [2]; 100 nM) [%] | cell viability (HepG2 [2]; 1000 nM) [%] | cell viability (HepG2 [2]; 10000 nM) [%] | cell viability (U2OS [3]; 1 nM) [%] | cell viability (U2OS [3]; 10 nM) [%] | cell viability (U2OS [3]; 100 nM) [%] | cell viability (U2OS [3]; 1000 nM) [%] | cell viability (U2OS [3]; 10000 nM) [%] | cell viability (Vero E6 [4]; 1 nM) [%] | cell viability (Vero E6 [4]; 10 nM) [%] | cell viability (Vero E6 [4]; 100 nM) [%] | cell viability (Vero E6 [4]; 1000 nM) [%] | cell viability (Vero E6 [4]; 10000 nM) [%] | relative viability EC50 (Calu-3 [5]) [µM] | relative viability EC50 (HepG2 [6]) [µM] | relative viability EC50 (U2OS [7]) [µM] | relative viability EC50 (Vero E6 [8]) [µM] | drug sensitivity score (Calu-3 [9]) | drug sensitivity score (HepG2 [10]) | drug sensitivity score (U2OS [11]) | drug sensitivity score (Vero E6 [12]) | cell viability (Caco-2 [13]; 1 nM) [%] | cell viability (Caco-2 [13]; 10 nM) [%] | cell viability (Caco-2 [13]; 100 nM) [%] | cell viability (Caco-2 [13]; 1000 nM) [%] | cell viability (Caco-2 [13]; 10000 nM) [%] | relative viability EC50 (Caco-2 [14]) [µM] | drug sensitivity score (Caco-2 [15])
CN(C)CCCN1c2ccccc2CCc2ccccc21 [imipramine] | 88.8 | 105 | 96.1 | 108 | 94.3 | 95.9 | 102 | 104 | 95.3 | 98.1 | 101 | 103 | 96 | 102 | 90.4 | 100 | 98.7 | 99.4 | 96.6 | 98.5 | > 10 | > 10 | > 10 | > 10 | 0 | 0 | 0 | 0 |  |  |  |  |  |  | 
CCN(CC)CC(=O)Nc1c(C)cccc1C [lidocaine] |  |  |  |  |  | 101 | 97.4 | 88.1 | 116 | 107 | 99.7 | 105 | 94.8 | 97.2 | 100 | 108 | 101 | 105 | 97.8 | 97.9 |  | > 10 | > 10 | > 10 |  | 0 | 0 | 0 | 103 | 108 | 90.8 | 80.4 | 97 | > 10 | 3.6
Cc1ccc(F)c(NC(=O)Nc2ccc(-c3cccc4[nH]nc(N)c34)cc2)c1 [linifanib] | 106 | 89.4 | 99.1 | 86.9 | 69.9 | 94.1 | 110 | 115 | 29.9 | 13.1 | 97.4 | 96.6 | 101 | 96.5 | 92.2 | 93.1 | 101 | 99.9 | 103 | 110 |  | 0.583 | > 10 | > 10 | 2.7 | 12.8 | 0 | 0 | 101 | 100 | 101 | 89.5 | 106 | > 10 | 0
COC(=O)N1CC[C@@H]2[C@H]1CCC[C@@]2(O)C#Cc1cccc(C)c1 [mavoglurant] |  |  |  |  |  | 102 | 107 | 95.5 | 91.8 | 114 | 103 | 99.9 | 102 | 101 | 95.8 | 104 | 101 | 106 | 104 | 97.4 |  | > 10 | > 10 | > 10 |  | 0 | 0 | 0 | 110 | 120 | 100 | 98.4 | 108 | > 10 | 0
CN(C(=O)CN(CCO)CC(=O)N(C)C(C)(C)Cc1ccccc1)C(C)(C)Cc1ccccc1 [oxethazaine] | 94.4 | 101 | 100 | 97.6 | 42.2 | 104 | 101 | 98.9 | 111 | 91.2 | 99.7 | 97.5 | 101 | 97.2 | 68.2 | 94.8 | 97.7 | 93.7 | 99.8 | 101 | 2.86 | > 10 |  | > 10 | 3.4 | 0 | 1.9 | 0 | 90.7 | 105 | 102 | 93.1 | 74.6 |  | 1.9
Cc1ccc(C(=O)Cn2c3c(sc2=N)CCCC3)cc1 [pifithrin-alpha] |  |  |  |  |  | 106 | 97.3 | 101 | 100 | 99 | 96.6 | 97.5 | 92.9 | 94.4 | 93.5 | 98.9 | 97.2 | 100 | 98.9 | 96.1 |  | > 10 | > 10 | > 10 |  | 0 | 0 | 0 | 102 | 89.9 | 97.1 | 99.3 | 90.1 | > 10 | 0
Fc1ccc(C(OCCN2CCN(CCCc3ccccc3)CC2)c2ccc(F)cc2)cc1 [vanoxerine] | 102 | 94.6 | 102 | 98.9 | 81.2 | 102 | 102 | 102 | 104 | 11 | 106 | 102 | 103 | 102 | 72.4 | 107 | 104 | 104 | 97.1 | 35.3 | > 10 | 3.42 |  | 2.82 | 0.6 | 4.6 | 1 | 3.9 | 103 | 93.2 | 99.9 | 93.1 | 50.3 |  | 3.8
CC(C)(C)S(=O)(=O)N[C@H]1CC[C@H](C(=O)Nc2ccc(C(F)(F)F)cn2)CC1 [velneperit] | 106 | 103 | 117 | 95.5 | 99.1 | 100 | 105 | 105 | 98.9 | 98 |  |  |  |  |  | 94.4 | 104 | 98.4 | 101 | 94.5 | > 10 | > 10 |  | > 10 | 0 | 0 |  | 0 | 109 | 98.1 | 103 | 91.7 | 104 | > 10 | 0
